The conditions of data set [1]: Crystal; DTA.
The nature of data set [2]: Molar enthalpy of transition or fusion. Conditions: Crystal; DSC.

Numbers after ± are expanded uncertainties.

In the case of `Clc1ccc2c(c1)Nc1ccccc1S2` [2-chlorophenothiazine], the Normal melting temperature in data set [1] was found to be 199.80 ± 1.1 °C. Besides, the “Molar enthalpy of transition or fusion” value in data set [2] came out at 21.6 ± 0.92 kJ/mol.

(Values after the NIST ThermoML archive (doi:10.1016/j.jct.2016.11.029).)
